For 7 compounds, GI50 and TGI results are on record in PubChem BioAssay (NCI).

SMILES strings stand for the structures.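 Values below derive from 48-hour exposures of cells grown in 96-well plates, with endpoints linearly interpolated between the two concentrations bracketing the appropriate inhibition level. GI50 = concentration required for 50% inhibition of growth. TGI: concentration producing complete growth inhibition.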 A value given as a limit tells only on which side of the number the result lay.

Some test systems named below: OVCAR-4 ovarian; OVCAR-3 ovarian; MOLT-4 leukemia; DU-145 prostate; ACHN renal; SN12C renal; HS 578T breast; NCI/ADR-RES ovarian; U251 CNS; CAKI-1 renal.
Assay in all cases: NCI anticancer screen, dose series, 48 h

For `CN(Cc1cccc(F)c1)c1ccc(CO)c(Cl)c1`, the GI50 in the experiment on OVCAR-4 ovarian was 1.61 µM; with OVCAR-3 ovarian, 3.08 µM; with MOLT-4 leukemia, 29 µM; with DU-145 prostate, 29.7 µM; in the experiment on ACHN renal, 37.3 µM; with SN12C renal, 22.3 µM. The GI50 with HS 578T breast was 25 µM; in the experiment on NCI/ADR-RES ovarian, 17.5 µM; in the experiment on U251 CNS, 4.57 µM; in the experiment with CAKI-1 renal, 3.05 µM. For the same compound, the TGI in the experiment with OVCAR-4 ovarian is 17 µM; in the experiment with OVCAR-3 ovarian, 15 µM; in the experiment with MOLT-4 leukemia, above 83.5 µM; in the experiment with DU-145 prostate, above 100 µM; with ACHN renal, above 100 µM; with SN12C renal, above 100 µM. Moreover, the TGI in the experiment on HS 578T breast was above 100 µM; with NCI/ADR-RES ovarian, 58 µM; with U251 CNS, 30.6 µM; in the experiment with CAKI-1 renal, above 61.3 µM.
In the case of `Oc1ccc(-c2nc3ccc4[nH]ncc4c3c3c2CCCC3)c(F)c1`, the GI50 is 3.38 µM in the experiment on OVCAR-4 ovarian; 2.89 µM in the experiment with OVCAR-3 ovarian; 1.91 µM in the experiment on MOLT-4 leukemia; 2.89 µM with DU-145 prostate; 2.08 µM with ACHN renal; 2.99 µM with SN12C renal. Also, the GI50 in the experiment on HS 578T breast was 2.35 µM; in the experiment on NCI/ADR-RES ovarian it was 3.91 µM; with U251 CNS, 1.45 µM; in the experiment with CAKI-1 renal it was 2.69 µM. For the same compound, the TGI is 16.1 µM with OVCAR-4 ovarian; 7.85 µM in the experiment with OVCAR-3 ovarian; 8.88 µM in the experiment on MOLT-4 leukemia; 13.2 µM with DU-145 prostate; 12.5 µM in the experiment with ACHN renal; 12.5 µM in the experiment with SN12C renal. Moreover, the TGI with HS 578T breast worked out at 8.98 µM; in the experiment on NCI/ADR-RES ovarian, 53.3 µM; with U251 CNS, 6.36 µM; with CAKI-1 renal, 9.73 µM.
As to `CC(C)N1CCN(Cc2ccc3c(NNC(=O)c4ccccc4)nc4cc(F)ccc4n23)CC1`, the GI50 with OVCAR-4 ovarian was 0.293 µM; with OVCAR-3 ovarian, 0.289 µM; in the experiment with MOLT-4 leukemia, 0.24 µM; in the experiment on DU-145 prostate it was 0.629 µM; in the experiment on ACHN renal, 0.0902 µM; in the experiment on SN12C renal, 0.529 µM. In addition, the GI50 with HS 578T breast was 4.23 µM; with NCI/ADR-RES ovarian it was 0.237 µM; in the experiment on U251 CNS, 0.296 µM; in the experiment on CAKI-1 renal, 0.249 µM. Also, the TGI in the experiment with OVCAR-4 ovarian was 7.71 µM; in the experiment on OVCAR-3 ovarian it was 6.79 µM; with MOLT-4 leukemia, 2.04 µM; with DU-145 prostate, 13.3 µM; in the experiment with ACHN renal it was 12 µM; with SN12C renal, 12.8 µM. The TGI in the experiment with HS 578T breast is 26.9 µM; in the experiment with NCI/ADR-RES ovarian, 4.53 µM; in the experiment on U251 CNS, 2.01 µM; in the experiment with CAKI-1 renal it was 6.26 µM.
Consider `CCN(Cc1ccc(F)cc1)c1ccc(CO)c(C)c1`, for which the GI50 in the experiment with OVCAR-4 ovarian was 2.46 µM; in the experiment with OVCAR-3 ovarian, 11.1 µM; with MOLT-4 leukemia, 15.5 µM; in the experiment with DU-145 prostate, 21.1 µM; in the experiment with ACHN renal, 12.5 µM; with SN12C renal it was 19.3 µM. The GI50 in the experiment on HS 578T breast was 11.7 µM; with NCI/ADR-RES ovarian, 16.8 µM; in the experiment on U251 CNS it was 12.1 µM; in the experiment on CAKI-1 renal, 3.28 µM. Also, the TGI in the experiment on OVCAR-4 ovarian is 14.3 µM; with OVCAR-3 ovarian, 24.1 µM; in the experiment with MOLT-4 leukemia it was 58.8 µM; with DU-145 prostate it was 59.2 µM; in the experiment on ACHN renal it was 39.4 µM; in the experiment with SN12C renal it was above 82.6 µM. Also, the TGI in the experiment on HS 578T breast came out at 64.8 µM; in the experiment on NCI/ADR-RES ovarian, 53.5 µM; in the experiment on U251 CNS it was 40.1 µM; in the experiment on CAKI-1 renal, 25.5 µM.
On to `CCOc1cc(Br)c(C(C)NC(=O)c2cccc(OC)c2)cc1OCC` (stereo not given), for which the GI50 with OVCAR-4 ovarian was 13.2 µM; with OVCAR-3 ovarian, 5.42 µM; with MOLT-4 leukemia it was 5.64 µM; with DU-145 prostate, 26.4 µM; in the experiment with ACHN renal, 21.1 µM; in the experiment with SN12C renal, 25.2 µM. In addition, the GI50 was 15.5 µM with HS 578T breast, 5.71 µM with NCI/ADR-RES ovarian, 11.4 µM in the experiment on U251 CNS and 13.3 µM with CAKI-1 renal. The TGI with OVCAR-4 ovarian is above 93.5 µM; with OVCAR-3 ovarian it was 38.7 µM; in the experiment on MOLT-4 leukemia, above 100 µM; in the experiment on DU-145 prostate it was above 100 µM; in the experiment on ACHN renal, above 100 µM; in the experiment on SN12C renal, above 100 µM. For the same compound, the TGI in the experiment with HS 578T breast was above 96.6 µM; in the experiment with NCI/ADR-RES ovarian, above 100 µM; in the experiment with U251 CNS, above 100 µM; in the experiment on CAKI-1 renal, above 100 µM.
On to `O=[N+]([O-])c1ccc(Oc2nc(Nc3ccc(O[C@H]4CO[C@H]5[C@@H]4OC[C@@H]5O)c(Cl)c3)ncc2F)c(Cl)c1`, for which the GI50 with OVCAR-4 ovarian is 1.19 µM; in the experiment with OVCAR-3 ovarian, 1.4 µM; in the experiment with MOLT-4 leukemia, 1.27 µM; in the experiment with DU-145 prostate, 0.917 µM; in the experiment on ACHN renal, 0.79 µM; in the experiment with SN12C renal it was 1.34 µM. Moreover, the GI50 in the experiment on HS 578T breast is 0.516 µM; with NCI/ADR-RES ovarian, 9.04 µM; in the experiment with U251 CNS, 1.66 µM; in the experiment on CAKI-1 renal, 2.28 µM. For the same compound, the TGI in the experiment with OVCAR-4 ovarian amounted to 5.73 µM; with OVCAR-3 ovarian it was 5.83 µM; in the experiment with MOLT-4 leukemia, 4.82 µM; with DU-145 prostate, 5.45 µM; in the experiment on ACHN renal it was 4.55 µM; in the experiment with SN12C renal, 6.78 µM. For the same compound, the TGI with HS 578T breast is 3.43 µM; in the experiment with NCI/ADR-RES ovarian, above 100 µM; in the experiment on U251 CNS, 6.51 µM; with CAKI-1 renal, 8.11 µM.
Take `COc1cccc(/C=N/NC(=S)NC2CC3CCC2C3)c1O` (stereo not given): the GI50 in the experiment with OVCAR-4 ovarian was 1.82 µM; in the experiment with OVCAR-3 ovarian, 3.07 µM; in the experiment with MOLT-4 leukemia, 10.5 µM; in the experiment with DU-145 prostate, 9.79 µM; in the experiment with ACHN renal it was 2.5 µM; with SN12C renal it was 5.09 µM. Besides, the GI50 was 4.27 µM in the experiment on HS 578T breast, 3.16 µM with NCI/ADR-RES ovarian, 7.57 µM in the experiment with U251 CNS and 3.33 µM in the experiment on CAKI-1 renal. Besides, the TGI came to 4.46 µM in the experiment on OVCAR-4 ovarian; 9.45 µM in the experiment on OVCAR-3 ovarian; 48.3 µM in the experiment with MOLT-4 leukemia; 22.8 µM with DU-145 prostate; 8.14 µM in the experiment on ACHN renal; 22.9 µM in the experiment with SN12C renal. The TGI in the experiment on HS 578T breast worked out at 22.2 µM; in the experiment with NCI/ADR-RES ovarian, 15.1 µM; in the experiment on U251 CNS, 26.7 µM; with CAKI-1 renal, 15.9 µM.
